The record followed here is US20180207294A1, “NON-ALCOHOLIC FATTY LIVER REGULATING FACTOR 14-3-3 PROTEIN” (Korea University Research and Business Foundation, priority 2015, published 2018).

Molecules are shown by their SMILES.

One experiment addresses T1, PPARγ2 and 14-3-3γ (Homo sapiens, UniProt P37231).
T1 construct: expressed in transfected cells; host or cells: HEK-293T
T1 sequence (P37231 1-505): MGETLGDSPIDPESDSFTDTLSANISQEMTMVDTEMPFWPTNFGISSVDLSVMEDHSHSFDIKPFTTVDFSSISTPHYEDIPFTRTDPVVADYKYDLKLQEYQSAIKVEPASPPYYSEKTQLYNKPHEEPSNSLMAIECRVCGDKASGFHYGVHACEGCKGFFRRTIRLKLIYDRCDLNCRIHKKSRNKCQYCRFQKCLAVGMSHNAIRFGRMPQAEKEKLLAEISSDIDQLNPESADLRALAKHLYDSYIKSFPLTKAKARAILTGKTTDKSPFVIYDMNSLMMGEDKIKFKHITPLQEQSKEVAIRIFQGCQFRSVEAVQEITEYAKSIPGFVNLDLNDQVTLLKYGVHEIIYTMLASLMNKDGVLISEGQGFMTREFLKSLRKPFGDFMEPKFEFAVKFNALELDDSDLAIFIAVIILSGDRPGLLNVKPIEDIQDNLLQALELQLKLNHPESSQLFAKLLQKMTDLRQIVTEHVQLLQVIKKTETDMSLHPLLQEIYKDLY
Briefly: GST-pull down assay, PPARγ2 / 14-3-3γ binding with oleic acid treatment (HEK-293T). Particulars: 200 μM oleic acid 72 hours; FIG. 8B. Here is the method:
(§1) HEK-293T cells were seeded in a 100 mm plate at a density of 2×10^6 cells per each well, and then transfected with mGST-PPARγ2DNA (4 μg) and HA-14-3-3β DNA (4 μg) or HA-14-3-3γ DNA (4 μg) using an E-fection plus reagent (Lugen). A ratio of DNA to the E-fection plus reagent was 1:2, and this method was performed according to a manufacturer's manual. After transfection, the cells were treated with 200 μM of oleic acid (OA) for 72 hours, washed with ice-cold PBS, and lysed with 500 μl/well of a lysis buffer (150 mM NaCl, 1 mM EDTA, 1% Nonidet P-40, 5% glycerol, 25 mM tris-HCl, pH 7.5, protease inhibitor added), the lysed cells were centrifuged at 10,000×g and 4° C. for 10 minutes to extract proteins, 1,000 μg of the proteins was reacted with 20 μl of glutathione Sepharose 4B beads (GE Healthcare, Buckinghamshire, UK) for 6 hours, washing of the beads with 1 ml of ice-cold PBS was repeated 5 times, the resulting beads were boiled at 100° C. for 10 minutes, and the proteins were separated on a 10% SDS-PAGE gel and identified using each of the antibodies (GST, HA: Santa Cruz) by western blotting, and all antibodies were used in a ratio of 1:3000.

Another experiment concerns the target T2, PPARγ2 and 14-3-3β (Homo sapiens, UniProt P37231).
T2 construct: expressed in transfected cells; host or cells: HEK-293T
T2 sequence (P37231 1-505): T1 sequence (P37231 1-505)
T2 sequence (P31946 1-246 partner): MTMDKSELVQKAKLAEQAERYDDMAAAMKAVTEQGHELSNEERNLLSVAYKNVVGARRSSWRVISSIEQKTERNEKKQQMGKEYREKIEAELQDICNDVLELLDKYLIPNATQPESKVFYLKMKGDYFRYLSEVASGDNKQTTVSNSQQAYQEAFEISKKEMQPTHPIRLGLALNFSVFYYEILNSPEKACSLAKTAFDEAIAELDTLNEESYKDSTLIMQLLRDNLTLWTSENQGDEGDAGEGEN
Description: GST-pull down assay, PPARγ2 / 14-3-3β binding with oleic acid treatment (HEK-293T). Particulars: 200 μM oleic acid 72 hours; FIG. 8A. Here is the method: as §1

The test system of experiment [1] is primary mouse hepatocytes. Description: Oil Red-O lipid accumulation, primary mouse hepatocytes. The following applies: concentration-dependent treatment of oleic acid, FIG. 9A. It counts as cell-based. Here is the method:
(§2) HepG2 cells and primary mouse hepatocytes were separately seeded in a 6-well plate at a density of 4×10^5 cells per each well, and then transfected with GFP-14-3-3β DNA (1 μg) or GFP-14-3-3γ DNA (1 μg) and si-14-3-3β (10 μM, Santa Cruz) or si-14-3-3γ (10 μM, Santa Cruz) using an E-fection plus reagent (Lugen). A ratio of DNA to the E-fection plus reagent was 1:2, and this method was performed according to a manufacturer's manual. […] The stained cells were bleached with 1 ml of isopropanol and analyzed at a wavelength of 550 nm using a DU530 spectrophotometer (Beckman Instruments, Palo Alto, Calif.).

Experiment [2] has as its system HepG2 cells. Briefly: Oil Red-O lipid accumulation, HepG2 cells. It counts as cell-based. Particulars: concentration-dependent treatment of oleic acid, FIG. 9A. Here is the method:
as §2

The subject of experiment [3] is primary mouse hepatocytes. Description: Triglyceride colorimetric assay, primary mouse hepatocytes. It is filed as cell-based. Particulars: primary mouse hepatocytes treated with oleic acid (200 μM, 72 hours); FIG. 10A. Here is the method:
A triglyceride (neutral fat) is a type of fatty acid and is used as an index of a fat content. A biochemical lipid test was carried out by measuring an amount of triglycerides. HepG2 cells and primary mouse hepatocytes were separately seeded in a 6-well plate at a density of 4×10^5 cells per each well, and then transfected with GFP-14-3-3β DNA (1 μg) or GFP-14-3-3γ DNA (1 μg) and si-14-3-3β (10 μM, Santa Cruz) or si-14-3-3γ (10 μM, Santa Cruz) using an E-fection plus reagent (Lugen). A ratio of DNA to the E-fection plus reagent was 1:2, and this method was performed according to a manufacturer's manual. After transfection, the cells were treated with 200 μM of oleic acid (OA) for 72 hours, and the amount of triglycerides was measured using a triglyceride colorimetric assay kit (Cayman Chemical). The corresponding cells were washed with ice-cold PBS and then scraped using a standard diluent assay reagent, the scrapping process was repeated using a sonicator 20 times to lyse the cells, and the lysed cells were reacted with an enzyme buffer solution for 15 minutes, followed by measurement using an ELISA reader (Bio-Rad Laboratories, Inc) at a wavelength of 550 nm.

In experiment [4] the test system is HepG2 cells. Briefly: mRNA expression (PCR) after oleic acid treatment, HepG2 cells. The following applies: oleic acid 72 hours. It is filed as cell-based, human. An excerpt: (§3) It is known that, in the liver of obese mice, the expression and activity of PPARγ2 are increased, and the expression of a target gene thereof is increased. To form such an obese environment in an in vitro experiment, mRNA expression amounts of PPARγ2, and 14-3-3β and 14-3-3γ were checked through treatment with oleic acid (OA), which is a type of fatty acid.
(§4) HepG2 cells and primary mouse hepatocytes were separately seeded in a 6-well plate at a density of 4x10^5 cells per each well, and then treated with 200 μM of oleic acid (OA) for 72 hours. For mRNA extraction, the corresponding cells were lysed with 1 ml/well of TRIzol (Invitrogen), 200 μl of chloroform was added thereto and mixed well, the resultant cells were maintained at room temperature for 5 minutes and then centrifuged at 12,000×g and 4° C. for 15 minutes, the obtained supernatant was mixed with 500 μl of isopropanol and then put on ice for 10 minutes, the resulting supernatant was centrifuged at 12,000×g and 4° C. for 15 minutes to remove a supernatant, and then pellets were dissolved with tertiary distilled water treated with diethyl pyrocarbonate (DEPC). 2 μg of mRNA was synthesized into cDNA using a Superscript First Strand cDNA Synthesis Kit (Bioneer, Daejeon, South Korea) and the synthesized cDNA as a template was amplified through polymerase chain reaction (PCR) using primers specific to PPARγ2, 14-3-3β, 14-3-3γ, SREBP-1c, SCD-1, ACC, FABP, FAT/CD36, and (β-actin of humans, and was amplified through real-time PCR using primers specific to PPARγ2, 14-3-3β, 14-3-3γ, SREBP-1c, FAT/CD36, and GAPDH of mice. β-actin and GAPDH were used as controls to see whether mRNAs of the respective cells were compared in the same amount.

The test system of experiment [5] is primary mouse hepatocytes. Briefly: mRNA expression (real-time PCR) after oleic acid treatment, primary mouse hepatocytes. It counts as cell-based. Particulars: oleic acid 72 hours.
Source text: as §3, §4
Background: Quantitative PCR measures a nucleic acid by following its amplification.

Regarding `CCCCCCCC/C=C\CCCCCCCC(=O)O` [oleic acid], the “binding between PPARγ2 and 14-3-3γ” value on PPARγ2 and 14-3-3γ is “reduced”. The “binding between PPARγ2 and 14-3-3β” value at PPARγ2 and 14-3-3β is recorded as “increased”. The “lipid accumulation (Oil Red-O)” value (in experiment [1]; in the experiment on HepG2 cells [2]) was “lipid accumulation was increased” in each case. For the same molecule, the triglyceride accumulation result in experiment [3] is “triglyceride accumulation was increased”. The “mRNA expression amount of 14-3-3β” value (in the experiment with HepG2 cells [4] (FIG. 6A); in experiment [5] (FIG. 6B)) was “no changes” throughout. The “mRNA expression amount of 14-3-3γ” value (in the experiment with HepG2 cells [4] (FIG. 6A); in experiment [5] (FIG. 6B)) was “no changes” each time. Moreover, the “mRNA expression of PPARγ2” value (in the experiment with HepG2 cells [4] (FIG. 6A); in experiment [5] (FIG. 6B)) was “increased in an oleic acid concentration-dependent manner” throughout. In addition, the “mRNA expression of lipid metabolism-associated genes (PPARγ2 target genes)” value (in the experiment with HepG2 cells [4] (FIG. 6C); in experiment [5] (FIG. 6D)) was “also increased in an oleic acid concentration-dependent manner” in each case.
